These results are taken from ChEMBL document CHEMBL5380842, “Discovery of a Potent and Selective CCR8 Small Molecular Antagonist IPG7236 for the Treatment of Cancer” (J Med Chem, 2023).

SMILES strings stand for the structures. pIC50: −log10 of the molar value. Bounds are passed on as bounds.

A short description of data set [1]: Oral bioavailability in ICR mouse at 50 mg/kg. It counts as ADME, organism-based. Conditions: in vivo.
A further data set has as its target Cytochrome P450 3A4 (Homo sapiens, UniProt P08684). The experiment in a line: Inhibition of CYP3A4-M (unknown origin). It counts as ADME.
Data set [2] can be described thus: Tmax in Cynomolgous monkey at 50 mg/kg, po. It counts as ADME, organism-based, Macaca fascicularis. Conditions: cynomolgus monkey, in vivo.
Data set [3] is described as follows: Stability in dog liver microsomes assessed as half life. The class given is ADME, Canis lupus familiaris, Microsome.
The nature of data set [4]: Stability in mouse liver microsomes assessed as half life. It counts as ADME, Microsome. (Liver microsomes are vesicles of endoplasmic reticulum, rich in cytochrome P450 enzymes.)
The target in another data set is T1, Cytochrome P450 2C8 (Homo sapiens, UniProt P10632).
T1 sequence (P10632 whole entry): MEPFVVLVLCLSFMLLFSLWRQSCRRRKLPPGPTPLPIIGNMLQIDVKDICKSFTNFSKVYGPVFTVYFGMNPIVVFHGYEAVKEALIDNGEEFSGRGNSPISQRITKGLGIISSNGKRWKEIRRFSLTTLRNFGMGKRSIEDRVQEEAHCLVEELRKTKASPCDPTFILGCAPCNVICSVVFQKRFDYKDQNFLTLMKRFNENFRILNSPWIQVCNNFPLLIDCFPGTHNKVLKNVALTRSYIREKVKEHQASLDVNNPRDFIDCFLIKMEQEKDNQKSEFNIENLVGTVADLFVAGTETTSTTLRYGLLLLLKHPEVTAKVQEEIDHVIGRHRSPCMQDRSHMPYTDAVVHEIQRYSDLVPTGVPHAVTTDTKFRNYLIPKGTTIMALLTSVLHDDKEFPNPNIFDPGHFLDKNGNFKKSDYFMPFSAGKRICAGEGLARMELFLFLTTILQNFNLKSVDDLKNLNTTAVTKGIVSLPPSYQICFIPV
Nature of the data set: Inhibition of CYP2C8 (unknown origin). It counts as ADME.

The test system of another data set is MDA-MB-231. The experiment in a line: Antitumor activity against human MDA-MB-231 cells xenografted in humanized NCG mouse assessed as decrease in tumor-infiltrating Treg cells administered intragastrically twice everyday. The class given is functional, cell-based. Conditions: dose 2-50 mg/kg, route ig.
A short description of data set [5]: Oral bioavailability in Cynomolgous monkey at 50 mg/kg. The settings on record: cynomolgus monkey, in vivo. The class given is ADME, organism-based, Macaca fascicularis.
Data set [6] is described as follows: Unbound fraction in human plasma. The class given is ADME, cell-free.
The nature of data set [7]: AUClast in Sprague-Dawley rat at 50 mg/kg, po. The class given is ADME, organism-based. More on the design: dose 50 mg/kg, route po. Conditions: in vivo.

Cytochrome P450 3A4, sequence (P08684 whole entry): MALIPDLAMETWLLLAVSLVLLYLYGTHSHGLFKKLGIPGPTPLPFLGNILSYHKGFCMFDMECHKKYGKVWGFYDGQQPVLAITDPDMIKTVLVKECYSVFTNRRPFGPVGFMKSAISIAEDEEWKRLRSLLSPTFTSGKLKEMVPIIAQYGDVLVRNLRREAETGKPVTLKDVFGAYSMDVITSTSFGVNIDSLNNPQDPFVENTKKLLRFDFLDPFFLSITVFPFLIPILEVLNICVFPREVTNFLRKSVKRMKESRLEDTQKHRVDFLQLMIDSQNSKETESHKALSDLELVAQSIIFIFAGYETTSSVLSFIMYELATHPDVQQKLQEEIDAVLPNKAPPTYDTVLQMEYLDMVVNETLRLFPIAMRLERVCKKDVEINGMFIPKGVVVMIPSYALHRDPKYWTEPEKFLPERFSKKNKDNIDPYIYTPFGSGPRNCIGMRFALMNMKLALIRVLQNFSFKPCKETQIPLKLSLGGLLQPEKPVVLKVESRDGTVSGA

In the case of `Cc1cc(S(=O)(=O)N[C@H](C)C2CCN(C)CC2)ccc1NC(=O)c1ccccc1C`, the bioavailability is 65% in [1] and 105% in data set [5]. In addition, the pIC50 on Cytochrome P450 3A4 and against Cytochrome P450 2C8 was < 5.00 throughout. For the same compound, the Tmax (in general, the time at which the peak concentration occurs) in [2] came to 2.3 h. Besides, the half-life (in general, how long it takes for the measured level to halve) stood at 158 min in [3] and 26 min in data set [4]. For the same compound, the Activity entry with MDA-MB-231 is “Dose-Dependent Effect”. The unbound share (fraction unbound) (usually free concentration divided by total concentration) in [6] came to 0.358. In addition, in [7], the area under the curve AUC(0-t) (in general, exposure summed from dosing to a finite time, without extrapolation to infinity) came to 13600 ng·h/mL.
